# Test system: Cath.a cells
# Experiment: TRPV1-induced calcium-mediated cell death (Trypan Blue positivity)
# Format: cell-based
# Method: We therefore studied susceptibility of HEK wild type cells, TRPV1 overexpressing HEK cells, and Cath.a cells to TRPV1-induced calcium-mediated cell death.
# Cells were plated into tissue culture dishes and treated with either vehicle (HEK wild type and Cath.a) or tetracycline (1 micromolar) for 16 h to induce TRPV1 expression (HEK-TRPV1) at 37° C. in a […] atmosphere. After washing, media were replaced with a modified sodium Ringer solution containing 3% FBS and either 10 millimolar CaCl2 or zero added CaCl2 and 1 millimolar EGTA. […] After 2 minutes, aliquots of 7 microliters of cell suspension were counted in a hemocytometer and field of at least 200 cells were scored for Trypan Blue positive or negative status.
smiles,measurement,setting,value
COc1cc(CNC(=O)CCCC/C=C/C(C)C)ccc1O [capsaicin],cell death (trypan blue positivity) in Cath.a cells,"10 mM external CaCl2, 80 min after stimulation with 250 nM capsaicin",can induce cell death
same,cell death (percent trypan blue positive cells) in Cath.a cells in the absence of external calcium,"no external calcium, 80 min after stimulation with 250 nM capsaicin",dependent upon the presence of external calcium

# — patent US11980592B2, “Cannabinoid-containing complex mixtures for the treatment of neurodegenerative diseases” (GBS GLOBAL BIOPHARMA, INC., priority 2016, dated 2024)
